Peptide text beside a SMILES is read from it.
What was measured:
[1] = tested on: National Cancer Institute's P388 lymphocytic leukemia cell line; conditions: cited from earlier work
[2] = cited from earlier work
[3] = tested on: CX-1 human colon tumor xenograft; assay: CX-1 human tumor xenograft model; format: in vivo, human (xenograft in athymic nude mice); conditions: Q2Dx3, 5,12,19
Description: (§1) Human tumors from lung (LX-1), colon (CX-1) and prostate (PC-3) which had been grown in athymic nude mice were transplanted (xenografted) into new recipient mice, as is well known in the art. The transplanted tumor fragments were approximately 50 mg in size. The day of transplantation was designated as day 0. The combination therapy of the present invention was evaluated for anti-tumor efficacy following administration to the xenograft-bearing mice.
(§2) Combination therapy was accomplished by intravenous administration of both drugs. […] In other words, treatment consisted of 3 cycles, starting on days 5, 12 and 19 post tumor implantation. One cycle of treatment consisted of treatment every other day for a total of three times.
(§3) Tumor diameters and body weights were measured twice weekly. Tumor volumes were calculated using the diameters measured with Vernier calipers, and the formula:
(§4) (length×width^2)/2=mg of tumor weight
(§5) Mean tumor weights (MTW) were calculated for each treatment group, and T/C values determined for each group relative to the untreated control tumors.
(§6) Results are also presented as Net log Cell Kill and are calculated as follows: [formula]
(§7) T and C=The median days required for the control and treated tumors to reach a specified tumor size, in this instance 2000 mm^3.
(§8) Doubling Time=Time required for control tumors to double in size.
(§9) The Q2dx3; 5, 12 and 19 dosing regimen described above was used in this example. Paclitaxel was administered IV one hour after Compound (xvii) was administered IV.

[4] = tested on: PC-3 human prostate tumor xenograft; assay: PC-3 human tumor xenograft model; format: in vivo, human (xenograft in athymic nude mice); conditions: Q2Dx3, 5,12,19; for MTW d35 % T/C: mean tumor weight day 35; for R[…]: of 6 animals
Description: as §1, §2, §3, §4, §5, §6, §7, §8
The Q2dx3; 5, 12 and 19 dosing regimen described above was used in this example. Paclitaxel was administered IP one hour after Compound (xvii) was administered IV. The optimal single dose of both paclitaxel and Compound (xvii) was not determined.

[5] = tested on: P388 tumor cells (murine lymphocytic leukemia cell line); assay: P388 in vivo tumor model (ascites, intraperitoneal implant); parameters: species or system mice; conditions: Q4Dx3, 1
Description: The P388 tumor model employs a murine lymphocytic leukemia cell line (See Schabel et al., Pharmac. Ther. A, 1:411-435). The P388 tumor cells used in this invention, were harvested from donor mice by peritoneal lavage at day 7 post transplant. 1×10^6 P388 tumor cells were then implanted intraperitoneally in a volume of 0.5 ml in mice.
A typical dosing regimen includes initiation of treatment approximately one day post transplant followed by treatment on days 5 and 9 post transplant. Generally the compounds of Formula I are administered intravenously (i.v.) and the paclitaxel, taxotere or modified taxane or taxoid analog is administered intraperitoneally (i.p.).
Therapeutic results of the combinations of the invention against P388 cells, are presented in terms of increase in lifespan reflected by the relative median survival time (MST) of treated (T) versus control (C) group (survival period for untreated mice is generally in the range of 11 to 13 days) and is represented as %T/C values. According to the National Cancer Institute guidelines a %T/C in the range or 128-190% indicates a drug with moderate to good activity. In addition, the Net log Cell Kill is used to compare efficacy of different schedules and combinations, and is calculated as follows: [formula]
Doubling Time=time required for control tumors to double once (0.4 days)
T and C=the median survival time (days) for the control (C) and treated (T) mice.
Duration of treatment with drug 0.332=Derived constant
1×10^6 P388 tumor cells were transplanted intraperitoneally in a volume of 0.5 ml in mice. Treatment was initiated approximately 1 day later followed by treatment on both day 5 and day 9, post transplant. Compound (xvii) was administered IV while paclitaxel was administered IP. […] The dosing was sequential with compound (xvii) being administered first followed by paclitaxel one hour later.

[6] = tested on: LX-1 human lung tumor xenograft; assay: LX-1 human tumor xenograft model; format: in vivo, human (xenograft in athymic nude mice); conditions: Q2Dx3, 5,12,19
Description: as §1, §2, §3, §4, §5, §6, §7, §8, §9

[7] = paclitaxel 10 mg/kg IV alone, of 6 animals

For Dolastatin-15, the “inhibition of cell growth (in words)” value [1] is given as “markedly inhibits the growth” and the “aqueous solubility (in words)” value [2] is given as “poor aqueous solubility”.

For `CC(=O)O[C@H]1C(=O)[C@@]2(C)[C@H]([C@H](OC(=O)c3ccccc3)[C@]3(O)C[C@H](OC(=O)[C@H](O)[C@@H](NC(=O)c4ccccc4)c4ccccc4)C(C)=C1C3(C)C)[C@]1(OC(C)=O)CO[C@@H]1C[C@@H]2O` [Paclitaxel], the “Net Log Cell Kill” value ([3]; paclitaxel 10 mg/kg IV alone) was −0.124, the “MTW d55 % T/C” value ([3]; paclitaxel 10 mg/kg IV alone, mean tumor weight day 55) was 38.12% and the “R[…]” value [3, 7] was 2. The “% Toxic Death” value ([4]; paclitaxel 10 mg/kg IP alone) was 0%, the “Net Log Cell Kill” value ([4]; paclitaxel 10 mg/kg IP alone) was −0.672 and the “MTW d35 % T/C” value ([4]; paclitaxel 10 mg/kg IP alone) was 55.12%. The “R[…]” value ([4]; paclitaxel 10 mg/kg IP alone) was 2, the “% Toxic Death” value ([4]; paclitaxel 20 mg/kg IP alone) was 0% and the “Net Log Cell Kill” value ([4]; paclitaxel 20 mg/kg IP alone) was 1.98. The “MTW d35 % T/C” value ([4]; paclitaxel 20 mg/kg IP alone) was 2.86%, the “% Toxic Death” value ([4]; paclitaxel 30 mg/kg IP alone) was 17% and the “Net Log Cell Kill” value ([4]; paclitaxel 30 mg/kg IP alone) was “toxic”. For the same compound, the “MTW d35 % T/C” value ([4]; paclitaxel 30 mg/kg IP alone) was 2%, the “R[…]” value ([4]; paclitaxel 30 mg/kg IP alone) was 5 and the “% T/C (median survival time treated vs control)” value ([5]; paclitaxel 10 mg/kg IP alone) was 183%. For the same compound, the “% Toxic Death” value ([5]; paclitaxel 10 mg/kg IP alone) was 0%, the “Net Log Cell Kill” value ([5]; paclitaxel 10 mg/kg IP alone) was 1.33 and the “% 60 Day Cures” value ([5]; paclitaxel 20 mg/kg IP alone) was 4%. For the same compound, the “% T/C (median survival time treated vs control)” value ([5]; paclitaxel 20 mg/kg IP alone) was 175%, the “% Toxic Death” value ([5]; paclitaxel 20 mg/kg IP alone) was 0% and the “Net Log Cell Kill” value ([5]; paclitaxel 20 mg/kg IP alone) was 0.66. The “% 60 Day Cures” value ([5]; paclitaxel 30 mg/kg IP alone) was 3%, the “% T/C (median survival time treated vs control)” value ([5]; paclitaxel 30 mg/kg IP alone) was 204% and the “% Toxic Death” value ([5]; paclitaxel 30 mg/kg IP alone) was 8%. The “Net Log Cell Kill” value ([5]; paclitaxel 30 mg/kg IP alone) was 2.99, the “% Toxic Death” value ([6]; paclitaxel 10 mg/kg IV alone) was 0% and the “Net Log Cell Kill” value ([6]; paclitaxel 10 mg/kg IV alone) was −0.374. For the same compound, the “MTW d27 % T/C” value ([6]; paclitaxel 10 mg/kg IV alone, mean tumor weight day 27) was 10.5% and the “R[…]” value [6, 7] was 2.

For `CC(C)[C@H](NC(=O)[C@H](C(C)C)N(C)C)C(=O)N(C)[C@H](C(=O)N1CCC[C@H]1C(=O)N1CCC[C@H]1C(=O)NCc1ccccc1)C(C)C` [Compound (xvii)] (HELM PEPTIDE1{[CC(C)[C@@H](C(=O)[*:2])N(C)C].V.[meV].P.P.[c1ccc(CN[*:1])cc1]}$$$$V2.0), the “% Toxic Death” value ([3]; (xvii) 25 mg/kg IV alone) was 83%, the “% Toxic Death” value ([4]; (xvii) 30 mg/kg IV alone) was 33% and the “% Toxic Death” value ([5]; (xvii) 20 mg/kg IV alone) was 0%. The “% Toxic Death” value ([5]; (xvii) 40 mg/kg IV alone) was 0%, the “% Toxic Death” value ([5]; (xvii) 60 mg/kg IV alone) was 0% and the “% Toxic Death” value ([6]; (xvii) 7.5 mg/kg IV alone) was 0%. For the same compound, the “% Toxic Death” value ([6]; (xvii) 15 mg/kg IV alone) was 0% and the “% Toxic Death” value ([6]; (xvii) 25 mg/kg IV alone) was 0%.
